Reference: patent US20140094387A1, “SUV39H2 AS A TARGET GENE FOR CANCER THERAPY AND DIAGNOSIS” (ONCOTHERAPY SCIENCE, INC., priority 2011, published 2014)

System: SUV39H2
Test: Quantitative real-time PCR of SUV39H2 expression after siRNA transfection
Type: cell-based, human
Conditions: A549 and SW780 cells; siRNA 100 nM; normalized by GAPDH, relative to siEGFP (siEGFP=1); vs control siRNAs siEGFP and siNC

Substance	SUV39H2 mRNA expression level
siSUV39H2#2: siRNA duplex targeting human SUV39H2; target 5' CUGGAAUCAGCUUAGUCAA 3' (SEQ ID NO: 20); sense SEQ ID NO: 17, antisense SEQ ID NO: 18 (sense CUGGAAUCAGCUUAGUCAATT; antisense UUGACUAAGCUGAUUCCAGTT; chemistry not given here)	suppression of endogenous SUV39H2 expression
siSUV39H2#1: siRNA duplex targeting human SUV39H2; target 5' CUUUGGUUGUUCAUGCACA 3' (SEQ ID NO: 19); sense SEQ ID NO: 15, antisense SEQ ID NO: 16 (sense CUUUGGUUGUUCAUGCACATT; antisense UGUGCAUGAACAACCAAAGTT; chemistry not given here)	suppression of endogenous SUV39H2 expression
